Results reported in article PMC3923112, “A non-radioactive method for measuring Rubisco activase activity in the presence of variable ATP: ADP ratios, including modifications for measuring the activity and activation state of Rubisco” (Photosynthesis Research, 2014).

What was measured:
Assay type in all cases: biochemical
Arabidopsis β-RCA = biological target: T1, Arabidopsis β-RCA (Arabidopsis thaliana, UniProt P10896); assay: continuous coupled Rubisco activation assay (dPGM, enolase, PEP carboxylase, malate dehydrogenase; NADH, A340); conditions: ADP plus ATP 5 mM total at ADP:ATP 0.33; tobacco Rubisco ER form not restated for this set; pH 8, 30 °C, 10 mM MgCl2
T1 construct: recombinant, expressed in Escherichia coli and purified
T1 sequence (P10896 59-446 isoform P10896-2): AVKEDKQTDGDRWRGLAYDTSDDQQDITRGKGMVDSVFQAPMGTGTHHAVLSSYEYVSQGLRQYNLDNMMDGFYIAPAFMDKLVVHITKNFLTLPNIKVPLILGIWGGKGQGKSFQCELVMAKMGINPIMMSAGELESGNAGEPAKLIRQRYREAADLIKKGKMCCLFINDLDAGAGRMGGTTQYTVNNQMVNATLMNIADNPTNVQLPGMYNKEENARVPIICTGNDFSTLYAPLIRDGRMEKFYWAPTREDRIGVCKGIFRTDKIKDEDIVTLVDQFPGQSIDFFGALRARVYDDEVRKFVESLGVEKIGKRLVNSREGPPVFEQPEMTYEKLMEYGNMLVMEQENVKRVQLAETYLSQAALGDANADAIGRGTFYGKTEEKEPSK

[1] = biological target: T2, tobacco Rubisco (wild-type) (Nicotiana tabacum, UniProt P00876); assay: continuous coupled 3-PGA formation assay (NADH, A340); conditions: ECM form, 0.5 or 2 mM RuBP, 10 mM NaHCO3, 10 mM MgCl2, 5 mM ATP, pH 8, 30 °C; RuBP also inhibits as tight ER complex
T2 construct: gene rbcL; native, purified from tobacco leaves; converted to ER form or carbamylated ECM form; with Ribulose bisphosphate carboxylase small subunit, chloroplastic
T2 sequence (P69249 58-180, other chains not shown): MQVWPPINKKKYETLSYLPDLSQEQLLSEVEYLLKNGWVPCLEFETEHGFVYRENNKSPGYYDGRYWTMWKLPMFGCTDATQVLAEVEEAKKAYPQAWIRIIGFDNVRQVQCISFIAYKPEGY

[2] = biological target: T3, His-tagged modified Rubisco (Nicotiana tabacum, UniProt P00876); assay: as above; conditions: ECM form, 0.5 or 2 mM RuBP, 10 mM NaHCO3, 10 mM MgCl2, 5 mM ATP, pH 8, 30 °C; RuBP also inhibits as tight ER complex
T3 construct: gene rbcL; six histidines added to the C-terminus of the large subunit; from transgenic tobacco plants; with Ribulose bisphosphate carboxylase small subunit, chloroplastic
T3 sequence (P69249 58-180, other chains not shown): as above

Row | % inhibition at 0.33 ADP:ATP (Arabidopsis β-RCA) [%] | SMILES | continuous coupled 3-PGA formation assay (NADH, A340) [1] | continuous coupled 3-PGA formation assay (NADH, A340) [2]
1 | 25 | Nc1ncnc2c1ncn2[C@@H]1O[C@H](COP(=O)(O)OP(=O)(O)O)[C@@H](O)[C@H]1O [ADP] | – | –
2 | – | O=C(COP(=O)(O)O)[C@H](O)[C@H](O)COP(=O)(O)O [RuBP] | specific activity of the ECM form of wild-type and modified Rubisco | specific activity of the ECM form of wild-type and modified Rubisco
